Reference: US10350230B2, “Use of albiflorin or pharmaceutically acceptable salt for prevention and/or treatment of irritable bowel syndrome” (priority 2015, dated 2019)
Counter-ions that a name gives are not always drawn.

Assays:
[1] = test system: chronic unpredictable stress (CUS) model in rats; assay: Chronic stress depression model in rats: sucrose aqueous solution-drinking test; conditions: for Sugar aqueous solution preference: 38 days, CUS rats, Means±SEM; for sugar aqueous solution preference of rats (result in words): compared with the model group
[2] = test system: chronic unpredictable stress (CUS) model in rats; assay: Chronic stress depression model in rats: open field test; conditions: for Number of times of horizontal movement in open field / Number of times of vertical movement in open field: CUS rats, 5 min, Means±SEM; for number of times of horizontal movement of rats in open field (result in words) / number of times of vertical movement of rats in open field (result in words): compared with the model group
[3] = test system: sleep time of mice induced by threshold dose of pentobarbital sodium; assay: Sleep induced by pentobarbital sodium in mice; format: in vivo; conditions: for Sleep time: 60 min before pentobarbital sodium 50 mg/kg i.p., mice; for sleep time of mice induced by threshold dose of pentobarbital sodium (result in words): compared with normal saline group
Method: Mice with a body weight of 18-22 g, male and female, were selected. Mice with a single-sex were used in each test. The mice were randomly divided into groups as follows: albiflorin group, diazepam group (positive control group) and control group (normal saline). There were 10 mice in each group. 60 minutes after the gavage administration, threshold dose of pentobarbital sodium (50 mg/kg) was injected intraperitoneally. The disappearance of righting reflex was recorded as time to fall asleep, and the period from the righting reflex being disappeared until the righting reflex being recovered was recorded as sleep duration time. Compared with the control group, the significance was determined by time t test.

[4] = test system: mice in light-dark shuttle box; assay: Light-dark shuttle box test in mice (anti-anxiety test); format: in vivo; conditions: for number of times of returning from the dark box back to the light box (result in words): albiflorin high-, mid- and low-dose groups, diazepam group, compared with normal control group; for Number of times of returning from dark box back to light box: 7 days, mice
Method: Mice were randomly divided into 5 groups, i.e. high-dose group of albiflorin (14 mg/kg/d), mid-dose group of albiflorin (7 mg/kg/d), low-dose group of albiflorin (3.5 mg/kg/d), diazepam group (2.5 mg/kg/d), and normal control group. Gavage administration was performed once a day, for 7 consecutive days. During the administration, animals had free access to food and water. The test was carried out 1 hour after the administration on Day 8.
Within the light-dark shuttle box (44 cm×21 cm×21 cm), the dark box accounts for one third thereof, with a cover on the top; and the light box accounts for two thirds thereof, with illumination brightness; and there is a hole between the two boxes for animal to pass through. During the test, mice were placed in the center of the light box, back to the dark box, and then observed. The number of times of entering into the dark box followed by returning to the light box in mice was counted, which was used as an index for the evaluation of anti-anxiety effect of a drug.
8.1.5 Statistical Analysis The data were expressed as X±SD, and the experimental results were analyzed by one-way ANOVA, using SPSS 11.5 statistical software.

[5] = test system: small intestine spasm models induced by Neostigmine in mice; assay: Abdominal pain of irritable bowel syndrome in mice (Neostigmine small intestine spasm, carbon powder propulsion); format: in vivo; conditions: for propulsive distance and propulsive rate of carbon powder suspension in mice intestine tract stimulated by Neostigmine (result in words): high-, mid- and low-dose groups, compared with pathology modeling control group; for Propulsive distance / Propulsive rate: 7 days, Neostigmine mice, carbon powder
Method: All the animals were deprived of food for 12 hours before the test. […] After 15 minutes, gavage administration of carbon powder paste was performed on all groups (0.2 ml/10 g body weight, each dosage contains 0.05 g of carbon powder and 0.02 g of carboxymethyl cellulose). The animals were killed 20 minutes later. The propulsive length of carbon powder in small intestine and the total length of small intestine were measured respectively, and then the propulsive rate of carbon powder was calculated. Statistical analysis of data was performed using t-test for intergroup comparison.
The propulsive distance: to measure the propulsive length of carbon powder in small intestine.
Propulsive rate (%)=(propulsive length/total length of small intestine)×100%.

[6] = test system: diarrhea model of irritable bowel syndrome induced by restraint stress in rats; assay: Diarrhea of irritable bowel syndrome induced by restraint stress in rat; format: in vivo; conditions: for number of fecal pellets excreted (result in words): high-, mid- and low-dose groups, compared with model control group; for Number of fecal pellets excreted in 1 h / Time for excreting glass ball: 7 days, restraint stress rats
Excerpt: The restraint stress stimulus method was used to induce abnormal defecation in rats, thereby leading to increase of colon smooth muscle movement and accelerating intestinal transport.
The animals were randomly divided into 10 groups as follows: normal control group; model control group (normal saline); high-, mid- and low-dose groups of test drugs (albiflorin and paeoniflorin); and positive control groups (loperamide hydrochloride (Imodium™) and trimebutine maleate (Yuanshengliwei™)). Gavage administration was performed on each group once a day, for 7 consecutive days.
The rats were deprived of food for 24 hours before the test. Half an hour after the last administration, the rats were anesthetized with ethyl ether. After the rat fainted away, its front shoulder, front upper limbs and chest were bound with scotch tape to prevent the front upper limbs from scratching its face, but the movement of the front upper limbs was not limited. A glass ball with a diameter of 3 mm was placed into the rectum 3 cm away from anus. The rats were moved rapidly into cages which were padded with clean filter paper. Timing started when the rat woke up, and the binding time was one hour. The number of fecal pellets excreted by the rat in one hour and the time for excreting glass ball were recorded. Statistical analysis of data was performed using t-test for intergroup comparison.

Molecule	sleep time of mice induced by threshold dose of pentobarbital sodium (result in words) [3]	number of times of returning from the dark box back to the light box (result in words) [4]	propulsive distance and propulsive rate of carbon powder suspension in mice intestine tract stimulated by Neostigmine (result in words) [5]	Propulsive distance ([5]; high-dose, 14 mg/kg/d gavage) [cm]	Propulsive rate ([5]; high-dose, 14 mg/kg/d gavage) [%]	Propulsive distance ([5]; low-dose, 3.5 mg/kg/d gavage) [cm]	Propulsive rate ([5]; low-dose, 3.5 mg/kg/d gavage) [%]	Propulsive distance ([5]; mid-dose, 7 mg/kg/d gavage) [cm]	Propulsive rate ([5]; mid-dose, 7 mg/kg/d gavage) [%]	number of fecal pellets excreted (result in words) [6]	Number of fecal pellets excreted in 1 h ([6]; high-dose, 9.8 mg/kg/d gavage)	Time for excreting glass ball ([6]; high-dose, 9.8 mg/kg/d gavage) [min]	Number of fecal pellets excreted in 1 h ([6]; low-dose, 2.45 mg/kg/d gavage)	Time for excreting glass ball ([6]; low-dose, 2.45 mg/kg/d gavage) [min]	Number of fecal pellets excreted in 1 h ([6]; mid-dose, 4.9 mg/kg/d gavage)	Time for excreting glass ball ([6]; mid-dose, 4.9 mg/kg/d gavage) [min]	also measured
CNCCC(Oc1ccc(C(F)(F)F)cc1)c1ccccc1 (stereo not shown) [Flx, Fluoxetine, reference compound]																	Sugar aqueous solution preference ([1]; 10 mg/kg gavage once a day): 70.63 ± 6.86 %; sugar aqueous solution preference of rats (result in words) ([1]; 10 mg/kg long-term gavage): obviously increased; Number of times of horizontal movement in open field ([2]; 10 mg/kg gavage once a day): 90.60 ± 7.72; Number of times of vertical movement in open field ([2]; 10 mg/kg gavage once a day): 20.80 ± 1.93; number of times of horizontal movement of rats in open field (result in words) ([2]; 10 mg/kg long-term gavage): obviously increased; number of times of vertical movement of rats in open field (result in words) ([2]; 10 mg/kg long-term gavage): obviously increased
C[C@]12C[C@@H](O)[C@@H]3C[C@@]1(O[C@@H]1O[C@H](CO)[C@@H](O)[C@H](O)[C@H]1O)[C@@]3(COC(=O)c1ccccc1)C(=O)O2 [Albiflorin]	obviously prolong	significantly increase	decreased obviously	22.80 ± 4.78	57.47 ± 10.67	22.10 ± 3.90	57.05 ± 4.69	20.80 ± 4.64	54.53 ± 9.39	decreased obviously	2.50 ± 1.27	10.60 ± 17.58	2.60 ± 1.84	19.90 ± 17.69	1.80 ± 1.48	12.00 ± 17.53	Sleep time ([3]; 7 mg/kg gavage): 90.2 ± 15.1 min; Sleep time ([3]; 14 mg/kg gavage): 98.8 ± 12.4 min; Number of times of returning from dark box back to light box ([4]; high-dose, 14 mg/kg/d gavage): 13.9 ± 3.23; Number of times of returning from dark box back to light box ([4]; low-dose, 3.5 mg/kg/d gavage): 10.6 ± 3.42; Number of times of returning from dark box back to light box ([4]; mid-dose, 7 mg/kg/d gavage): 12.1 ± 3.51; Sugar aqueous solution preference ([1]; 3.5 mg/kg gavage once a day): 60.04 ± 10.86%; sugar aqueous solution preference of rats (result in words) ([1]; 3.5 mg/kg): did not obviously increase; sugar aqueous solution preference of rats (result in words) ([1]; 7.0 mg/kg and 14.0 mg/kg): obviously increased; Sugar aqueous solution preference ([1]; 7.0 mg/kg gavage once a day): 76.19 ± 5.35 %; Sugar aqueous solution preference ([1]; 14.0 mg/kg gavage once a day): 78.12 ± 4.04 %; Number of times of horizontal movement in open field ([2]; 3.5 mg/kg gavage once a day): 95.40 ± 9.23; Number of times of vertical movement in open field ([2]; 3.5 mg/kg gavage once a day): 20.50 ± 1.81; number of times of horizontal movement of rats in open field (result in words) ([2]; 3.5 mg/kg): obviously increased; number of times of horizontal movement of rats in open field (result in words) ([2]; 7.0 mg/kg and 14.0 mg/kg): can not obviously increase; Number of times of horizontal movement in open field ([2]; 7.0 mg/kg gavage once a day): 98.20 ± 8.61; Number of times of vertical movement in open field ([2]; 7.0 mg/kg gavage once a day): 21.10 ± 2.17; Number of times of horizontal movement in open field ([2]; 14.0 mg/kg gavage once a day): 104.10 ± 11.11; Number of times of vertical movement in open field ([2]; 14.0 mg/kg gavage once a day): 22.10 ± 2.66; number of times of vertical movement of rats in open field (result in words) ([2]; 3.5-14.0 mg/kg): obviously increased
CN(C)C(=O)C(CCN1CCC(O)(c2ccc(Cl)cc2)CC1)(c1ccccc1)c1ccccc1 [Loperamide hydrochloride, loperamide hydrochloride]																	Number of fecal pellets excreted in 1 h ([6]; 0.17 mg/kg/d gavage): 1.40 ± 0.97; Time for excreting glass ball ([6]; 0.17 mg/kg/d gavage): 26.00 ± 28.30 min
C[C@@]12C[C@@]3(O)O[C@@H](O1)[C@]1(COC(=O)c4ccccc4)[C@H]3C[C@@]12O[C@@H]1O[C@H](CO)[C@@H](O)[C@H](O)[C@H]1O [Paeoniflorin, paeoniflorin, reference compound]			decreased only in high-dose group	28.80 ± 3.79	65.64 ± 8.80	31.80 ± 3.79	72.64 ± 4.69	31.00 ± 1.93	71.92 ± 7.51	only a trend to decrease	3.71 ± 2.02	10.70 ± 16.06	4.10 ± 1.81	10.64 ± 15.01	3.96 ± 1.36	10.50 ± 14.03	
CN1C(=O)CN=C(c2ccccc2)c2cc(Cl)ccc21 [Diazepam, diazepam, reference compound]	obviously prolong	significantly increase															Sleep time ([3]; 0.5 mg/kg gavage): 96. ± 14.6 min; Sleep time ([3]; 1 mg/kg gavage): 102.0 ± 16.2 min; Number of times of returning from dark box back to light box ([4]; 2.5 mg/kg/d gavage): 13.6 ± 3.35
trimebutine maleate																	Number of fecal pellets excreted in 1 h ([6]; 6.25 mg/kg/d gavage): 3.70 ± 2.26; Time for excreting glass ball ([6]; 6.25 mg/kg/d gavage): 17.80 ± 21.88 min
